Measured values: US9302999B2, “Substituted triazoles as herbicides” (E. I. DU PONT DE NEMOURS AND COMPANY, priority 2012, dated 2016)
Read-outs that look alike come from different tables or passages of the source.

Legend:
Type in all cases: in vivo
[1] = tested on: pigweed (Amaranthus retroflexus); assay: Test C pre-/postemergence: pigweed; details: Postemergence
Source text: (§1) Seeds of plant species selected from blackgrass (Alopecurus myosuroides), bromegrass, downy (downy bromegrass, Bromus tectorum), foxtail, green (green foxtail, Setaria viridis), ryegrass, Italian (Italian ryegrass, Lolium multiflorum), winter wheat (Triticum aestivum), wild oat (Avena fatua), galium (catchweed bedstraw, Galium aparine), bermudagrass (Cynodon dactylon), surinam grass (Brachiaria decumbens), cocklebur (common cocklebur, Xanthium strumarium), corn (Zea mays), large crabgrass (Digitaria sanguinalis), woolly cupgrass (Eriochloa villosa), foxtail, giant (giant foxtail, Setaria faberii), goosegrass (Eleusine indica), johnsongrass (Sorghum halepense), kochia (Kochia scoparia), lambsquarters (Chenopodium album), morningglory (Ipomoea coccinea), nightshade (eastern black nightshade, Solanum ptycanthum), nutsedge, yellow (yellow nutsedge, Cyperus esculentus), pigweed (Amaranthus retroflexus), ragweed (common ragweed, Ambrosia elation), soybean (Glycine max), common (oilseed) sunflower (Helianthus annuus), Russian thistle (Salsola kali) and velvetleaf (Abutilon theophrasti) were planted into a blend of loam soil and sand and treated preemergence with test chemicals formulated in a non-phytotoxic solvent mixture which included a surfactant.
(§2) At the same time, plants selected from these crop and weed species and also barley (winter barley, Hordeum vulgare), canarygrass (Phalaris minor), chickweed (common chickweed, Stellaria media) windgrass (Apera spica-venti) and deadnettle (henbit deadnettle, Lamium amplexicaule) were planted in pots containing Redi-Earth® planting medium (Scotts Company, 14111 Scottslawn Road, Marysville, Ohio 43041) comprising spaghnum peat moss, vermiculite, wetting agent and starter nutrients and treated with postemergence applications of test chemicals formulated in the same manner. Plants ranged in height from 2 to 18 cm (1- to 4-leaf stage) for postemergence treatments.
(§3) Treated plants and controls were maintained in a greenhouse for 13 to 15 days, after which time all species were compared to controls and visually evaluated. Plant response ratings, summarized in Table C, are based on a scale of 0 to 100 where 0 is no effect and 100 is complete control. A dash (-) response means no test result.

[2] = tested on: wheat (Triticum aestivum); assay: Test A pre-/postemergence: wheat; details: Triticum aestivum, 240 h; for plant injury at 125 g/ha: 125 g ai/ha; for plant injury at 500 g/ha: 500 g ai/ha
In short: (§4)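 Whole-plant greenhouse assay in loam/sand. Preemergence directed soil spray plus simultaneous postemergence spray (one- to two-leaf stage, 2–10 cm). Rated visually ~10 days later, 0 = no effect, 100 = complete control.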

corn (Zea mays) = assay: Test A pre-/postemergence: corn; details: Zea mays, 240 h
In short: as §4

[3] = tested on: large crabgrass (Digitaria sanguinalis); assay: Test C pre-/postemergence: large crabgrass; details: Postemergence
In short: (§5)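 Visual injury scored 0–100 (100 = complete control) against untreated controls after 13–15 greenhouse days. Surfactant-containing solvent formulations applied either to soil after sowing (loam/sand) or over 1- to 4-leaf plants, 2–18 cm tall.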

[4] = tested on: velvetleaf (Abutilon theophrasti); assay: Test C pre-/postemergence: velvetleaf; details: Postemergence
Source text: as §1, §2, §3

[5] = tested on: ryegrass, Italian (Italian ryegrass, Lolium multiflorum); assay: Test C pre-/postemergence: ryegrass, Italian
In short: as §5

[6] = tested on: ragweed (common ragweed, Ambrosia elation); assay: Test C pre-/postemergence: ragweed; details: Postemergence
Source text: as §1, §2, §3

[7] = tested on: galium (catchweed bedstraw, Galium aparine); assay: Test C pre-/postemergence: galium
In short: as §5

kochia (Kochia scoparia) = assay: Test C pre-/postemergence: kochia; details: Postemergence
Source text: as §1, §2, §3

[8] = tested on: foxtail, giant (giant foxtail, Setaria faberii); assay: Test C pre-/postemergence: foxtail, giant; details: Postemergence
In short: as §5

[9] = tested on: morningglory (Ipomoea spp.); assay: Test A pre-/postemergence: morningglory; details: Ipomoea, 240 h; for pest or weed control at 500 g/ha: 500 g ai/ha
In short: as §4

[10] = tested on: johnsongrass (Sorghum halepense); assay: Test C pre-/postemergence: johnsongrass; details: Postemergence
Source text: as §1, §2, §3

[11] = 31 g ai/ha, scale 0 to 100 (0 no effect, 100 complete control)
[12] = 62 g ai/ha, scale 0 to 100 (0 no effect, 100 complete control)
[13] = 125 g ai/ha, scale 0 to 100, 0 no effect, 100 complete control
[14] = Postemergence, 31 g ai/ha, scale 0 to 100 (0 no effect, 100 complete control)
[15] = Postemergence, 62 g ai/ha, scale 0 to 100 (0 no effect, 100 complete control)
[16] = Postemergence, 125 g ai/ha, scale 0 to 100, 0 no effect, 100 complete control
[17] = Postemergence, 250 g ai/ha, scale 0 to 100
[18] = Preemergence, 31 g ai/ha, scale of 0 to 100, 0 is no effect, 100 is complete control
[19] = Preemergence, 62 g ai/ha, scale of 0 to 100, 0 is no effect, 100 is complete control
[20] = Preemergence, 125 g ai/ha, scale 0 to 100, 0 no effect, 100 complete control
[21] = Preemergence, 250 g ai/ha, scale 0 to 100, 0 no effect, 100 complete control

## Cc1nn(-c2ccc(F)cc2)nc1Cc1ccnc(C(F)(F)F)c1 [Compound 16, 4-[[2-(4-fluorophenyl)-5-methyl-2H-1,2,3-triazol-4-yl]methyl]-2-(trifluoromethyl)pyridine]
[1]; [11]
  Plant response rating, Pigweed: 75
[1]; [12]
  Plant response rating, Pigweed: 95
[1]; [13]
  Plant response rating, Pigweed: 100
[1]; 250 g ai/ha, scale 0 to 100
  Plant response rating, Pigweed: 100
[2]; post-emergence, Postemergence, 0 to 100 scale, 0 is no effect, 100 is complete control, read-out: Wheat plant response rating
  plant injury at 125 g/ha: 20%
[2]; post-emergence, Postemergence, visual rating on 0 to 100 scale (0 no effect, 100 complete control), approximately ten days, read-out: Wheat plant response rating
  plant injury at 500 g/ha: 30%
[2]; pre-emergence, Preemergence, 0 to 100 scale (0 no effect, 100 complete control), read-out: Plant response rating, Wheat
  plant injury at 125 g/ha: 10%
[2]; pre-emergence, Preemergence, 0 to 100 scale, 0 is no effect, 100 is complete control, read-out: Plant response rating, Wheat
  plant injury at 500 g/ha: 20%
Corn (Zea mays); post-emergence, Postemergence, 125 g ai/ha, 0 to 100 scale, 0 is no effect, 100 is complete control, read-out: Corn plant response rating
  plant injury at 125 g/ha: 30%
Corn (Zea mays); post-emergence, Postemergence, 500 g ai/ha, visual rating on 0 to 100 scale (0 no effect, 100 complete control), approximately ten days, read-out: Corn plant response rating
  plant injury at 500 g/ha: 50%
Corn (Zea mays); pre-emergence, Preemergence, 125 g ai/ha, 0 to 100 scale (0 no effect, 100 complete control)
  Corn plant response rating (crop injury, 0 = no effect, 100 = complete kill) at 125 g/ha: 10%
Corn (Zea mays); pre-emergence, Preemergence, 500 g ai/ha, 0 to 100 scale, 0 is no effect, 100 is complete control
  Corn plant response rating (crop injury, 0 = no effect, 100 = complete kill) at 500 g/ha: 20%
[3]; [11]
  Plant response rating, Crabgrass, Large: 5
[3]; [12]
  Plant response rating, Crabgrass, Large: 5
[3]; [13]
  Plant response rating, Crabgrass, Large: 20
[3]; 250 g ai/ha, scale 0 to 100
  Plant response rating, Crabgrass, Large: 60
[4]; [11]
  Plant response rating, Velvetleaf: 10
[4]; [12]
  Plant response rating, Velvetleaf: 65
[4]; [13]
  Plant response rating, Velvetleaf: 65
[4]; 250 g ai/ha, scale 0 to 100
  Plant response rating, Velvetleaf: 85
[5]; [14]
  Plant response rating, Ryegrass, Italian: 10
[5]; [15]
  Plant response rating, Ryegrass, Italian: 10
[5]; [16]
  Plant response rating, Ryegrass, Italian: 20
[5]; [17]
  Plant response rating, Ryegrass, Italian: 20
[5]; [18]
  Plant response rating, Ryegrass, Italian: 5
[5]; [19]
  Plant response rating, Ryegrass, Italian: 95
[5]; [20]
  Plant response rating, Ryegrass, Italian: 100
[5]; [21]
  Plant response rating, Ryegrass, Italian: 100
[6]; [11]
  Plant response rating, Ragweed: 5
[6]; [12]
  Plant response rating, Ragweed: 25
[6]; [13]
  Plant response rating, Ragweed: 75
[6]; 250 g ai/ha, scale 0 to 100
  Plant response rating, Ragweed: 75
[7]; [14]
  Plant response rating, Galium: 60
[7]; [15]
  Plant response rating, Galium: 65
[7]; [16]
  Plant response rating, Galium: 80
[7]; [17]
  Plant response rating, Galium: 90
[7]; [18]
  Plant response rating, Galium: 100
[7]; [19]
  Plant response rating, Galium: 100
[7]; [20]
  Plant response rating, Galium: 100
[7]; [21]
  Plant response rating, Galium: 100
Kochia (Kochia scoparia); [11]
  Plant response rating, Kochia: 95
Kochia (Kochia scoparia); [12]
  Plant response rating, Kochia: 98
Kochia (Kochia scoparia); [13]
  Plant response rating, Kochia: 98
Kochia (Kochia scoparia); 250 g ai/ha, scale 0 to 100
  Plant response rating, Kochia: 98
[8]; [11]
  Plant response rating, Foxtail, Giant: 40
[8]; [12]
  Plant response rating, Foxtail, Giant: 40
[8]; [13]
  Plant response rating, Foxtail, Giant: 50
[8]; 250 g ai/ha, scale 0 to 100
  Plant response rating, Foxtail, Giant: 50
[9]; post-emergence, Postemergence, 125 g ai/ha, 0 to 100 scale, 0 is no effect, 100 is complete control, read-out: Morningglory plant response rating
  pest or weed control at 125 g/ha: 80%
[9]; post-emergence, Postemergence, visual rating on 0 to 100 scale (0 no effect, 100 complete control), approximately ten days, read-out: Morningglory plant response rating
  pest or weed control at 500 g/ha: 100%
[9]; pre-emergence, Preemergence, 0 to 100 scale, 0 is no effect, 100 is complete control, read-out: Plant response rating, Morningglory
  pest or weed control at 500 g/ha: 80%
[10]; [11]
  Plant response rating, Johnsongrass: 0
[10]; [12]
  Plant response rating, Johnsongrass: 0
[10]; [13]
  Plant response rating, Johnsongrass: 45
[10]; 250 g ai/ha, scale 0 to 100
  Plant response rating, Johnsongrass: 45
